Non-standard residues stand in square brackets, D forms with d. Residues, ends and D or L forms follow the SMILES beside them. pGlu = O=C1CC[C@@H](C(=O)O)N1
Key:
[1] = system: antibody production against sheep erythrocyte; experiment: Effect on antibody production (Ceglowski's method), agglutination titer; assay type: in vivo, H. Wistar rats
Experimental: (1) The effect on antibody production was tested according to Ceglowski's method [Ceglowski: Ann. N.Y. Acad. Sci. 249, 343 (1975)]. New-born H. Wistar rats were treated with single 25 μlit. doses of 4×10^-3 -4×10^-7 moles/lit. of the test material (9 animals for each dose) at the latest at the 12th hour after birth. The 14-day animals were then immunized with a sheep erythrocyte suspension administering 0.5 ml. of a 5% sheep erythrocyte suspension each animal intraperitoneally. On the 7th day after immunization the animals were decapitated. The blood of three animals was mixed and from the serum obtained (after centrifuging at 3000 r.p.m. for 10 minutes) the titers for antibodies were determined by the method of Takatsy [Takatsy: Acta Microbiol. Acad. Sci. Hung. 3, 191 (1955)]. The results are expressed in agglutination titers. The titer corresponds to the […] dilution of the serum in which agglutination can be observed.

[2] = system: lymphocytes of patients suffering from rheumatoid arthritis; experiment: Active E-rosette test, lymphocytes of rheumatoid arthritis patients; assay type: cell-based, human; conditions: for E-rosette forming activity, percentage amount of active lymphocytes: n = 4
Experimental: (§1) The active E-rosette test was carried out according to a modified method of Wybran et al [Wybran et al: New Engl. J. Med. 292, 475 (1975)] by the lymphocites of healthy and autoimmune patients (rheumatoid arthritis and systemic lupus erythematosus). To 50 μl of a lymphocyte cell suspension 10^-3 -10^-11 moles/lit. solutions of the test material were added and the mixture was incubated in an atmosphere containing 5.0% of carbon dioxide, at 37° C. for 60 minutes. Thereafter 50 μlit. of a 1% sheep erythrocite suspension were added and the mixture was centrifuged at 1000 r.p.m. for 10 minutes followed by shaking with a modified Gallenkampf-shaker (shaking time: 30 sec, stroke: 8 cm, shaking frequency: 65/min.). The rosettes were fixed with a 0.1% glutaric aldehyde (50 μlit. for each tube, 3 min.). Lymphocytes bonding more than three sheep erythrocite were counted under a microscope and 4×100 cells were evaluated. The separated lymphocytes contain macrophages and polymorphonuclear cells (up to 10%) as an impurity. The number of the cells forming the rosettes was corrected by this value each case.

[3] = system: lymphocytes of healthy persons; experiment: Active E-rosette test, lymphocytes of healthy persons; assay type: cell-based, human; conditions: for E-rosette forming activity, percentage amount of active lymphocytes: n = 4
Experimental: as §1

[4] = system: antibody production against sheep erythrocyte; experiment: Effect on antibody production (Ceglowski's method), agglutination titer; assay type: in vivo, H. Wistar rats; remark: listed apart in the source
[5] = system: plaque forming spleen cells (PFC); experiment: Effect on plaque forming spleen cells (PFC); assay type: in vivo, H. Wistar rats; conditions: for Ratio of the plaque formation produced by treated and untreated (control) animals: new-born animals
Experimental: (2) The number of the cells producing a specific antibody was determined by the method of Canningham Handbook of Experimental Immunology (editor: D. M. Weir), 2nd Volume, p. 285, Blackwell, Oxford-London (1978). According to this method from the spleen cells of immunized animals, sheep erythrocyte suspension and complement a homogenous suspension was prepared and it was placed into a chamber suitable for forming a single cell layer. Around the spleen cells lytic areolas are formed, the number of which is identical with the number of the cells producing a specific antibody (plaque forming cells, PFC).
The test animals, not later than 12 hour after birth, were given a single i.p. dose of the test material. According to the method (1) three different doses of each substance were tested. On the 7th day after immunization the plaque formation of the spleen cells isolated from the animals was examined.

[6] = single 25 μlit. dose of 4·10^-3 moles/liter to new-born rats
[7] = single 25 μlit. dose of 4·10^-5 moles/liter to new-born rats
[8] = single 25 μlit. dose of 4·10^-7 moles/liter to new-born rats
[9] = single i.p. dose 1.0·10^-4 mmoles
[10] = single i.p. dose 1.0·10^-6 mmoles
[11] = single i.p. dose 1.0·10^-8 mmoles

Structure (SMILES)	Antibody production, agglutination titer (X ± S.D.) [1, 6]	Antibody production, agglutination titer (X ± S.D.) [1, 7]	Antibody production, agglutination titer (X ± S.D.) [1, 8]	E-rosette forming activity, percentage amount of active lymphocytes ([2]; 10^-3 moles/liter)	E-rosette forming activity, percentage amount of active lymphocytes ([2]; 10^-5 moles/liter)	E-rosette forming activity, percentage amount of active lymphocytes ([2]; 10^-7 moles/liter)	E-rosette forming activity, percentage amount of active lymphocytes ([2]; 10^-9 moles/liter)	E-rosette forming activity, percentage amount of active lymphocytes ([2]; 10^-11 moles/liter)	E-rosette forming activity, percentage amount of active lymphocytes ([3]; 10^-3 moles/liter)	E-rosette forming activity, percentage amount of active lymphocytes ([3]; 10^-5 moles/liter)	E-rosette forming activity, percentage amount of active lymphocytes ([3]; 10^-7 moles/liter)	E-rosette forming activity, percentage amount of active lymphocytes ([3]; 10^-9 moles/liter)	E-rosette forming activity, percentage amount of active lymphocytes ([3]; 10^-11 moles/liter)	Ratio of the plaque formation produced by treated and untreated (control) animals [5, 9]	Ratio of the plaque formation produced by treated and untreated (control) animals [5, 10]	Ratio of the plaque formation produced by treated and untreated (control) animals [5, 11]	Effect on E-rosette forming activity (in words) ([3]; 10^-11 moles/lit.)	In vivo effect on the antibody production (in words) ([1]; 4.10^-7 moles/lit.)	In vivo effect on plaque forming spleen cells (in words) ([5]; in all tested doses)	also measured
COC(=O)[C@@H](NC(=O)[C@H](CC(=O)O)NC(=O)[C@H](CCCCN)NC(=O)[C@@H](N)CCCNC(=N)N)C(C)C [Arg--Lys--Asp--Val--OMe, Arg-Lys-Asp-Val-OMe] (H-RKDV-OMe)	6.0 ± 1.7	4.5 ± 0.5	5.5 ± 2.6	31.2%	30.8%	32.4%	27.9%	26.5%	26.8%	27.2%	29.4%	24.8%	23.8%	–	–	–	–	–	–	Effect on E-rosette forming activity (in words) ([2]; 10^-7 moles/lit.): stimulating effect
CC(C)[C@H](NC(=O)[C@H](CC(=O)O)NC(=O)[C@H](CCCCN)NC(=O)[C@@H](N)CCCNC(=N)N)C(N)=O [Arg--Lys--Asp--Val--NH2, Arg-Lys-Asp-Val-NH2] (H-RKDV-NH2)	–	–	–	31.5%	29.8%	26.9%	34.8%	28.2%	29.0%	33.8%	35.1%	26.6%	38.1%	0.3	0.52	2.7	stimulating effect	–	–	In vivo effect on the antibody production (in words) ([4]; 4.10^-8 moles/lit.): significant stimulating activity; Antibody production, agglutination titer (X ± S.D.) ([4]; single 25 μlit. dose of 4·10^-8 moles/liter to new-born rats): 6.8 ± 0.8; Antibody production, agglutination titer (X ± S.D.) ([1]; single 25 μlit. dose of 4·10^-4 moles/liter to new-born rats): 5.2 ± 2.2; Antibody production, agglutination titer (X ± S.D.) ([1]; single 25 μlit. dose of 4·10^-6 moles/liter to new-born rats): 6.2 ± 2.0; In vivo effect on plaque forming spleen cells (in words) ([5]; in lower doses): about two-times increase; Effect on E-rosette forming activity (in words) ([2]; 10^-9 moles/lit.): significantly stimulated
C[C@H](NC(=O)[C@H](CC(=O)O)NC(=O)[C@H](CCCCN)NC(=O)[C@@H](N)CCCNC(=N)N)C(=O)O [Arg--Lys--Asp--Ala, Arg-Lys-Asp-Ala] (H-RKDA-OH)	10.5 ± 1.5	11.5 ± 0.9	12.0 ± 0	28.6%	24.5%	25.8%	25.3%	27.9%	41.2%	39.6%	40.8%	36.4%	40.5%	4.9	1.9	3.0	stimulating effect	significant stimulating activity	substantial increase	–
CC(C)[C@H](NC(=O)[C@H](CC(=O)O)NC(=O)[C@H](CCCCN)NC(=O)[C@H](C)N)C(=O)O [Ala--Lys--Asp--Val, Ala-Lys-Asp-Val] (H-AKDV-OH)	–	–	–	25.3%	22.8%	22.5%	23.9%	20.3%	43.4%	34.9%	47.5%	39.1%	36.2%	0.04	0.01	–	–	–	significant inhibiting activity	Effect on E-rosette forming activity (in words) ([3]; 10^-7 moles/lit.): significant stimulating effect
CC(C)[C@H](NC(=O)[C@H](CC(=O)O)NC(=O)[C@H](CCCCN)NC(=O)[C@H](CCCNC(=N)N)NC(=O)[C@@H]1CCC(=O)N1)C(=O)N[C@@H](Cc1ccc(O)cc1)C(=O)O [Glp--Arg--Lys--Asp--Val--Tyr, Glp-Arg-Lys-Asp-Val-Tyr] ([pGlu]RKDVY-OH)	–	–	–	24.1%	22.7%	22.6%	26.6%	24.9%	29.9%	22.5%	29.4%	25.5%	29.9%	–	–	–	–	–	–	Antibody production, agglutination titer (X ± S.D.) ([4]; footnote y: concentration 2·10^-1 moles/liter): 5.5 ± 0.6; In vivo effect on the antibody production (in words) ([1]; 2.10^-3 moles/lit.): inhibiting activity; Antibody production, agglutination titer (X ± S.D.) ([1]; column 4·10^-3 moles/liter, footnote x: concentration is half of the head value): 3.0 ± 1.0; Antibody production, agglutination titer (X ± S.D.) ([1]; column 4·10^-5 moles/liter, footnote x: concentration is half of the head value): 5.2 ± 0.8
CC(C)[C@H](NC(=O)[C@H](CC(=O)O)NC(=O)[C@H](CCCCN)NC(=O)[C@H](CCCNC(=N)N)NC(=O)[C@@H]1CCC(=O)N1)C(=O)O [Glp--Arg--Lys--Asp--Val, Glp-Arg-Lys-Asp-Val] ([pGlu]RKDV-OH)	9.0 ± 2.6	8.3 ± 0.6	7.2 ± 1.3	22.8%	23.2%	21.4%	19.4%	20.4%	–	–	–	–	–	–	–	–	–	inhibiting activity	–	–

From patent US4428938A, “Peptides affecting the immune regulation and a process for their preparation” (Richter Gedeon Vegyeszeti Gyar Rt., priority 1981, dated 1984)
